ChEMBL document CHEMBL3526122, “Identification of UDP-glucuronosyltransferases responsible for the glucuronidation of darexaban, an oral factor Xa inhibitor, in human liver and intestine” (Drug Metab Dispos, 2012)

Legend:
[1] = Substrate inhibition in human intestinal microsomes after 5 mins by Michaelis-Menten plot analysis in presence of UDPGA; format: ADME, Intestine, Microsome
[2] = biological target: T1, UDP-glucuronosyltransferase 1A10 (Homo sapiens, UniProt Q9HAW8); test: Activity of human recombinant UGT1A10 expressed in baculovirus-infected insect cells assessed as intrinsic clearance for enzyme-mediated glucuronide formation per mg of protein at 1 to 250 uM after 10 mins in presence of UDPGA; format: ADME
T1 sequence (Q9HAW8 whole entry): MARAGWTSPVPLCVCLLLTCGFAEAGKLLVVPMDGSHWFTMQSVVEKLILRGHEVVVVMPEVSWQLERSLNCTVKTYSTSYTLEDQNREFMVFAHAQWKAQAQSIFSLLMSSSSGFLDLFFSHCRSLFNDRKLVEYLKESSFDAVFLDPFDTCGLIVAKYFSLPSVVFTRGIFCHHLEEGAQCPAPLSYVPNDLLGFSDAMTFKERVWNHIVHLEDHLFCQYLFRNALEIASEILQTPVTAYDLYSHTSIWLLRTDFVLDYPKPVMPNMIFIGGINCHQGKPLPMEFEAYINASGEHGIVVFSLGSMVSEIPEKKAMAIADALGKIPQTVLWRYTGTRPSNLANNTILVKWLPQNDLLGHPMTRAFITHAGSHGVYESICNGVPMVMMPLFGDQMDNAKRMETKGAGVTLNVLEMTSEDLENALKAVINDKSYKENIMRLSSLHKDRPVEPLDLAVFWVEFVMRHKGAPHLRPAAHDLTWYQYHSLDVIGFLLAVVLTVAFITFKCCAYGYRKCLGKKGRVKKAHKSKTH

[3] = Drug metabolism in human liver microsomes assessed as glucuronidation after 10 mins by Michaelis-Menten plot analysis in presence of UDPGA; format: ADME
[4] = biological target: T2, UDP-glucuronosyltransferase 1A9 (Homo sapiens, UniProt O60656); test: Activity of human recombinant UGT1A9 expressed in baculovirus-infected insect cells assessed as unbound intrinsic clearance for enzyme-mediated glucuronidation per mg of protein after 5 mins by Michaelis-Menten plot analysis in presence of UDPGA and 0.1% fatty acid free BSA; format: ADME
T2 sequence (O60656 whole entry): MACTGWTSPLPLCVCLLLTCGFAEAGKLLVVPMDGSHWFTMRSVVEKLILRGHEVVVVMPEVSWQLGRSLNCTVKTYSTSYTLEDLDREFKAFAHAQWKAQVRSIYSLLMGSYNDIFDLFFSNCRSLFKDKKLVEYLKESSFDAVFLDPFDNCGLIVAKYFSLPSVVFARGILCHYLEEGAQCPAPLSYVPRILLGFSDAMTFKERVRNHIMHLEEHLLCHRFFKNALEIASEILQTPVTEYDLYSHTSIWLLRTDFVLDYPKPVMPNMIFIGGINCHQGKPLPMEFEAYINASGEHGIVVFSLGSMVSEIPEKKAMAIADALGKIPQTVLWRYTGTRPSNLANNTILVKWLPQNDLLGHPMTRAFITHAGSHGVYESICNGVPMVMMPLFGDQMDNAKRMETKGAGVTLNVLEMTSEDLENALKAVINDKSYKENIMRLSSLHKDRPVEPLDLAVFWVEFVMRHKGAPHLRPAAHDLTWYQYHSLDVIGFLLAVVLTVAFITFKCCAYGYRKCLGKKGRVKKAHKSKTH

[5] = biological target: T3, UDP-glucuronosyltransferase 2B4 (Homo sapiens, UniProt P06133); test: Activity of human recombinant UGT2B4 expressed in baculovirus-infected insect cells assessed as enzyme-mediated glucuronidation per mg of protein after 10 mins in presence of UDPGA; format: ADME
T3 sequence (P06133 whole entry): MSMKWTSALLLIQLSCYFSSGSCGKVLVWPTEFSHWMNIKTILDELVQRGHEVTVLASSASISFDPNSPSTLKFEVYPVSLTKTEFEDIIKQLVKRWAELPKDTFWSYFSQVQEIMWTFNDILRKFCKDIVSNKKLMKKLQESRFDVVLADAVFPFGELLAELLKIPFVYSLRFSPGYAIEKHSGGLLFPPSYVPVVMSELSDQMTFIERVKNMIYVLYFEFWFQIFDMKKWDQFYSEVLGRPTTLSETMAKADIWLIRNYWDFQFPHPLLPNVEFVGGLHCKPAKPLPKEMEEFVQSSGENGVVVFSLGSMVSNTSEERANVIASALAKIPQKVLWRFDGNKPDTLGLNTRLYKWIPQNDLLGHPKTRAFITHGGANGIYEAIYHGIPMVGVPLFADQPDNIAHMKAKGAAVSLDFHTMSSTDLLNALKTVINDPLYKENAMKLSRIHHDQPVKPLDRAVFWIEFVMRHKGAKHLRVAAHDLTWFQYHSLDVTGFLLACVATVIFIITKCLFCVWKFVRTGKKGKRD

[6] = Fraction unbound incubation mixture containing human recombinant UGT1A9 at 1 to 250 uM after 10 mins by ultrafiltration method in presence of 0.5% fatty acid free BSA
[7] = biological target: T4, UDP-glucuronosyltransferase 1A6 (Homo sapiens, UniProt P19224); test: Activity of human recombinant UGT1A6 expressed in baculovirus-infected insect cells assessed as enzyme-mediated glucuronidation per mg of protein after 10 mins in presence of UDPGA; format: ADME
T4 sequence (P19224 whole entry): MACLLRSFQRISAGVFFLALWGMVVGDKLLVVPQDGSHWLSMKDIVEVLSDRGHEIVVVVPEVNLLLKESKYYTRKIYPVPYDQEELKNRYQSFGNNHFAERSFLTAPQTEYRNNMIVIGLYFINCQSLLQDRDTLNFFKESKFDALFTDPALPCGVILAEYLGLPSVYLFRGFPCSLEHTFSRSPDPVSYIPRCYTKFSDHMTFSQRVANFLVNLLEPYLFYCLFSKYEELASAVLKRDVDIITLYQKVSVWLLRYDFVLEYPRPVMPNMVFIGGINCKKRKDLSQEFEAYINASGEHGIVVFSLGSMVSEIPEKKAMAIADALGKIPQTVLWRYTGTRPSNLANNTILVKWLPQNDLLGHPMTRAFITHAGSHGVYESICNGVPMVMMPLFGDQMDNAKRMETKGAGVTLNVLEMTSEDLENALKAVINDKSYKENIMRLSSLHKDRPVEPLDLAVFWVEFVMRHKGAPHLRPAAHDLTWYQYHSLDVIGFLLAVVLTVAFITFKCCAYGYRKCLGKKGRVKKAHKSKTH

[8] = biological target: T1, UDP-glucuronosyltransferase 1A10; test: Ratio of Ki to Km for human recombinant UGT1A10 expressed in baculovirus-infected insect cells; format: ADME; settings: recombinant enzyme
[9] = Drug metabolism in human liver microsomes assessed as glucuronidation after 10 mins by Michaelis-Menten plot analysis in presence of UDPGA and 2% fatty acid free BSA; format: ADME; settings: read-out: Km(unbound)

Ki [1]: 463 µM
clearance [2]: 39.8 µL/min/mg
Km at 10 min [3]: > 250 µM
CL free [4]: 250 µL/min/mg
Drug metabolism [5]: < 0.01 nmol/min/mg
Drug metabolism [7]: < 0.01 nmol/min/mg
Ratio [8]: 6.9
Km at 10 min [9]: 17.6 µM
SMILES: COc1ccc(C(=O)Nc2cccc(O)c2NC(=O)c2ccc(N3CCCN(C)CC3)cc2)cc1.O=C(O)CCC(=O)O
Fu [6]: 0.553
